Entries after “also recorded” stand apart in the source; their conditions may differ. Like-named read-outs stand apart in the source and are kept apart here.
How the values were obtained:
[1] = tested on: MCF-7 breast cancer cell line; test: SRB anti-proliferative assay, MCF-7; assay type: cell-based, human; conditions: for IC50: Homo sapiens, read-out: IC50 MCF-7
Description: (§1) Cytotoxicity was assessed following the SRB colorimetric assay protocol, as reported earlier.
(§2) 1. Anti-proliferative action toward human breast cell lines […]
(§3) have been obtained from American Type Culture Collection (ATCC). The cells were maintained in Dulbecco's modified Eagle's medium (DMEM) supplemented with 10% heat inactivated fetal calf serum (GIBCO), penicillin (100 U/ml) and streptomycin (100 µg/ml) at 37 °C in humidified atmosphere containing 5% CO2. Cells at a concentration of […]
(§4) The anti-proliferative activity of the tested hybrids 6a-i, 9a-f and 11a, b was measured in vitro using the Sulfo-Rhodamine-B stain (SRB) assay. Briefly, Cells were inoculated in 96-well microtiter plate (5X104 cells/ well) for 24 h before treatment with the tested compounds to allow attachment of cell to the wall of the plate. Tested compounds were dissolved in DMSO at 1 mg/ml immediately before use and diluted to the appropriate volume just before addition to the cell culture. Different concentrations of tested compounds, doxorubicin and sorafenib were added to the cells (three wells were prepared for each individual dose). Cells were incubated with the compounds for 48 h at 37°C and in atmosphere of 5% CO2. After 48 h cells were fixed, washed, and stained for 30 min with 0.4% (w/v) SRB dissolved in 1% acetic acid. Unbound dye was removed by four washes with 1% acetic acid, and attached stain was recovered with Tris-EDTA buffer.
(§5) Color intensity was measured in an ELISA reader. […]

[2] = tested on: MDA-MB-231 breast cancer cell line; test: SRB anti-proliferative assay, MDA-MB-231; assay type: cell-based, human; conditions: for IC50 / IC50 MDA-MB-231: mean ± S.D. from 3 separate experiments
Description: as §1, §2, §3, §4, §5

[3] = molecular target: T1, CDK4 (Homo sapiens, UniProt P11802); test: CDK4 kinase inhibition (Reaction Biology HotSpot); assay type: biochemical; conditions: for inhibition at 20 µM: single dose of 20 µM
T1 construct: purchased Reaction Biology Corp. (Kinase HotSpot service)
T1 sequence (P11802 whole entry): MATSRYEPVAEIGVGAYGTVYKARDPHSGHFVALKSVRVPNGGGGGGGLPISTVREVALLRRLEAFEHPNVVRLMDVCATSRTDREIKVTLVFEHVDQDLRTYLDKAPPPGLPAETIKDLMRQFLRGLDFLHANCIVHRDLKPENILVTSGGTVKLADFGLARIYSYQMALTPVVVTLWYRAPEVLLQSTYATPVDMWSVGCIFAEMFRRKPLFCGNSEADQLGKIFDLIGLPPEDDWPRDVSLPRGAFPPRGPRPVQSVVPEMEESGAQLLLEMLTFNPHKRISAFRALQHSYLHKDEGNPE
T1 sequence (P24385 whole entry partner): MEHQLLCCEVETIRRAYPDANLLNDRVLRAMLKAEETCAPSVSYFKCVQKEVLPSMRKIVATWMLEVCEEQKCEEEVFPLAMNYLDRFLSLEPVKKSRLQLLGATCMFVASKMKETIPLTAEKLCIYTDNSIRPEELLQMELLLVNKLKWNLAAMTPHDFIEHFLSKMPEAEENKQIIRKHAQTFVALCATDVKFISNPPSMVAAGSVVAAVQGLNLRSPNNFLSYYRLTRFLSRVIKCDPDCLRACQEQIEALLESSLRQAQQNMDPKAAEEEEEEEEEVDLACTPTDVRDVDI
Description: (§6) 5. CDK Kinase Inhibitory Activity
(§7) along with required cofactors.
(§8) Kinase activity data were
(§9) (dimethyl sulfoxide) reactions.

[4] = molecular target: T2, CDK2 (Homo sapiens, UniProt P24941); test: CDK2 kinase inhibition (Reaction Biology HotSpot); assay type: biochemical; conditions: single dose of 20 µM; read-out: % Enzyme Inhibitory Activity CDK2
T2 construct: purchased Reaction Biology Corp. (Kinase HotSpot service)
Description: as §6, §7, §8, §9

[5] = molecular target: CDK9 (Homo sapiens, UniProt P50750); test: CDK9 kinase inhibition (Reaction Biology HotSpot); conditions: read-out: % Enzyme Inhibitory Activity CDK9
Chain of CDK9 (P50750 whole entry): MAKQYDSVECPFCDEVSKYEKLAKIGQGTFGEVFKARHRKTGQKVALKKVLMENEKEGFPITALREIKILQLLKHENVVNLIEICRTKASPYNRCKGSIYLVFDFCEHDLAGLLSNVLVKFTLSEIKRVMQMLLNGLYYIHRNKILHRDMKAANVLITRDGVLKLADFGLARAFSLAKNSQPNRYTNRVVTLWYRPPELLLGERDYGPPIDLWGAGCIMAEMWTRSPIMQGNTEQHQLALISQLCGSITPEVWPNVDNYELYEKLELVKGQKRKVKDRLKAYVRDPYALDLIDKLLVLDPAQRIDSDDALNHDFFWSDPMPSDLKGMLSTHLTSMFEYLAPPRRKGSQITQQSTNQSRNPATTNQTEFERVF
Chain of CDK9 (O60563 whole entry partner): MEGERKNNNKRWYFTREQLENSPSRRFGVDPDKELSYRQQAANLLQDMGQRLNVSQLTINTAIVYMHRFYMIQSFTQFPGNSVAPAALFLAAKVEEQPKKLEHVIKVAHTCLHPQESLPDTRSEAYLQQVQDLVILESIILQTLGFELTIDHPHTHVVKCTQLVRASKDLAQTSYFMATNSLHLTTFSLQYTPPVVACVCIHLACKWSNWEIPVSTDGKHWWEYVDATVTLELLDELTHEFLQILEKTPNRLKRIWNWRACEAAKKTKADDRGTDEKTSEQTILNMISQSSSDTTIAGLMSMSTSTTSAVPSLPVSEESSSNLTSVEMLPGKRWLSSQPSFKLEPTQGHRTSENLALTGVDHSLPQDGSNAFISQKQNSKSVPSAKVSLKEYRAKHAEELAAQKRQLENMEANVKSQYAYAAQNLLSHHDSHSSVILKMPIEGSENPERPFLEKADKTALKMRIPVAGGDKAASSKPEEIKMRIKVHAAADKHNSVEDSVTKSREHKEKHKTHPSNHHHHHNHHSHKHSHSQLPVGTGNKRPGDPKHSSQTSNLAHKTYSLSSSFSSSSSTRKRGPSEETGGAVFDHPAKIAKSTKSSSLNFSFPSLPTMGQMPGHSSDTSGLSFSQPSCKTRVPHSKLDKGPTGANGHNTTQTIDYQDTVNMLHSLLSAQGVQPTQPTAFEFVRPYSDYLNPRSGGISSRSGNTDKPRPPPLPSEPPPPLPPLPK
Description: The in vitro CDK kinase inhibition assay was performed by Reaction Biology Corp. (PA, USA) (http://www.reactionbiology.com) Kinase HotSpotSM service.
Reaction Biology Corp. Kinase HotSpotSM service (http://www.reactionbiology.com)
was used for screening of tested compounds. CDK Kinase inhibitory activities were
assessed by the HotSpot assay platform, which contained specific kinase/substrate pairs
along with required cofactors. Base reaction buffer: 20 mM Hepes (pH 7.5), 10 mM MgCl2,
Testing compounds were dissolved in 100% DMSO to specific concentration. The serial
dilution was conducted by Integra Viaflo Assist in DMSO. The reaction mixture containing the examined compound and 33P-ATP was incubated at room temperature for
2 h and radioactivity was detected by filter-binding method. Kinase activity data were
expressed as the percent remaining kinase activity in test samples compared to vehicle

[6] = MCF7, SRB assay, 48 h, mean ± S.D. from 3 separate experiments
[7] = Homo sapiens, MDA-MB-231, SRB assay, 48 h, read-out: IC50 MDA-MB-231
[8] = Homo sapiens, MDA-MB-231, 48 h, read-out: IC50 MDA-MB-231, SRB assay, 48 h
[9] = SRB assay, 48 h, mean ± S.D. from 3 separate experiments

| SMILES | IC50 [1, 6] [µM] | IC50 [2, 7] [µM] | inhibition at 20 µM [3] [%] | inhibition at 20 µM [4] [%] | inhibition at 20 µM [5] [%] | also measured |
| --- | --- | --- | --- | --- | --- | --- |
| O=C1Nc2ccccc2/C1=N/NC(=O)c1cc2ccccc2[nH]1 [6a] | 3.12 ± 0.14 | 15.1 ± 0.73 | 92 | 78 | 20 | IC50 [3]: 1820 nM |
| O=C1Nc2ccc(F)cc2/C1=N/NC(=O)c1cc2ccccc2[nH]1 [6b] | 6 ± 0.32 | 6.36 ± 0.29 | 33 | 48 | 7 |  |
| O=C1Nc2ccc(Cl)cc2/C1=N/NC(=O)c1cc2ccccc2[nH]1 [6c] | 2.72 ± 0.17 | 9.48 ± 0.44 | 28 | ≥ 50 | 11 |  |
| O=C1Nc2ccc(Br)cc2/C1=N/NC(=O)c1cc2ccccc2[nH]1 [6d] | 3.31 ± 0.11 | 18.3 ± 0.71 | 43 | 85 | 32 |  |
| O=C1Nc2ccc(OC(F)(F)F)cc2/C1=N/NC(=O)c1cc2ccccc2[nH]1 [6g] | 5.07 ± 0.21 | 7.19 ± 0.38 | 19 | 14 | 4 |  |
| O=C1Nc2ccc([N+](=O)[O-])cc2/C1=N/NC(=O)c1cc2ccccc2[nH]1 [6h] | 21.4 ± 1.58 | 1.85 ± 0.07 | 46 | ≥ 50 | 10 | fold potency compared to staurosporine ([2]; MDA-MB-231, ratio of IC50 values): 5.56 fold |
| Cc1cc(C)c2c(c1)/C(=N/NC(=O)c1cc3ccccc3[nH]1)C(=O)N2 [6i] | 47.2 ± 3.02 | > 100 |  |  |  | IC50 MDA-MB-231 ([2]; SRB assay, 48 h): no activity |
| CN1C(=O)/C(=N\NC(=O)c2cc3ccccc3[nH]2)c2ccccc21 [9a] | 5.5 ± 0.28 | 8.39 ± 0.27 | 20 | 41 | 13 |  |
| CCCN1C(=O)/C(=N\NC(=O)c2cc3ccccc3[nH]2)c2ccccc21 [9b] |  |  |  |  |  | IC50 ([1]; MCF7, 48 h): 40.9 ± 3.17 µM; IC50 [2, 8]: 18.2 ± 0.85 µM; IC50 ([2]; read-out: IC50 MDA-MB-231, SRB assay, 48 h): 18.5 ± 0.85 µM |
| CCOC(=O)CN1C(=O)/C(=N\NC(=O)c2cc3ccccc3[nH]2)c2ccccc21 [9c] | 67.5 ± 3.02 | > 100 |  |  |  | IC50 MDA-MB-231 ([2]; SRB assay, 48 h): no anti-proliferative activity |
| O=C(N/N=C1\C(=O)N(Cc2ccccc2)c2ccccc21)c1cc2ccccc2[nH]1 [9d] |  |  |  |  |  | IC50 ([1]; MCF7, 48 h): 9.56 ± 0.61 µM; IC50 [2, 8]: 6.5 ± 0.39 µM |
| O=C(N/N=C1\C(=O)N(Cc2ccc(F)cc2)c2ccccc21)c1cc2ccccc2[nH]1 [9e] |  |  | 12 | 5 | 9 | IC50 ([1]; MCF7, 48 h): 3.7 ± 0.19 µM; IC50 [2, 8]: 1.03 ± 0.04 µM |
| CCCN1C(=O)/C(=N\NC(=O)c2cc3ccccc3[nH]2)c2cc(Cl)ccc21 [9f] |  |  |  |  |  | IC50 ([1]; MCF7, 48 h): 19.3 ± 0.65 µM; IC50 [2, 8]: 9.44 ± 0.35 µM |
| O=C(NN=C1Cc2ccccc2C1)c1cc2ccccc2[nH]1 [11a] | 84.7 ± 4.02 | > 100 |  |  |  | IC50 MCF-7 [1, 9]: did not exert any significant anti-proliferative action; IC50 MDA-MB-231 ([2]; SRB assay, 48 h): no activity; also recorded: did not exert any significant anti-proliferative action |
| O=C(N/N=C1\CCCc2ccccc21)c1cc2ccccc2[nH]1 [11b] | > 100 | > 100 |  |  |  | IC50 MCF-7 [1, 9]: did not exert any significant anti-proliferative action; IC50 MDA-MB-231 ([2]; SRB assay, 48 h): no activity; also recorded: did not exert any significant anti-proliferative action |
| CN[C@@H]1C[C@H]2O[C@@](C)([C@@H]1OC)n1c3ccccc3c3c4c(c5c6ccccc6n2c5c31)C(=O)NC4 [Staurosporine, reference compound] |  |  |  |  | 98 |  |
